{
  "source": "patent US11291674B2",
  "about": "(CALITHERA BIOSCIENCES, INC., priority 2016, dated 2022)",
  "key": {"[1]": {"test_system": "granulocyte-mediated suppression of T cell proliferation", "experiment": "T cell/granulocyte co-culture assay, healthy donor", "assay_type": "cell-based, human", "method": "T cell and NK cell proliferation assays. T cells or NK cells were purified from healthy donor human blood or from murine splenocytes using a negative selection kit for the appropriate cell type and species from Stemcell Technologies. Isolated T cells or NK cells were loaded with carboxyfluorescein succinimidyl ester (CFSE, Thermo Fisher) and stimulated for 72-96 h in complete growth media containing a minimum of either 50 µM L-arginine (NK cells) or 100 μM L-arginine (T cells). […] Proliferation was quantified by analyzing CFSE dilution by flow cytometry (Guava flow cytometer, Millipore, Billerica, Mass. or Attune N×T flow cytometer, ThermoFisher).\nT cell/myeloid cell co-culture assays. […] Granulocytes were incubated for 48 h at 37° C., during which time they spontaneously activate as determined by surface expression of CD66b and scatter properties. […] Co-cultures were incubated for 3-4 days, at which time media were analyzed for L-arginine and L-ornithine by mass spectrometry and T cell proliferation was determined by flow cytometry. […] Cytokines were quantified in the media from T cell co-culture assays using the Cytometric Bead Array kit according to the manufacturer's instructions (BD Biosciences)."}, "4T1 cell line": {"test_system": "4T1 cell line", "experiment": "Cytotoxicity assay (CellTiterGlo), 4T1", "assay_type": "cell-based, murine", "conditions": "1 mM arginase inhibitor, 72 h", "method": "Cytotoxicity assays. […] Cytotoxicity was assayed by the addition of CellTiterGlo reagent according to the manufacturer's instructions (Promega, Madison, Wis.) followed by […] quantification on a Molecular Devices plate reader (Sunnyvale, Calif.)."}, "[2]": {"experiment": "Pharmacokinetic and pharmacodynamic study in LLC tumor-bearing mice", "assay_type": "in vivo, mouse", "description": "(****P<0.0001; ***P<0.001; **P<0.01 vs. vehicle)."}, "[3]": {"experiment": "Tolerability and body weight in mice", "assay_type": "in vivo", "description": "(§1) Murine tumor studies. Female wild-type C57BL/6 and Balb/c mice (5-6 weeks old) were purchased from Charles River Laboratories (Hollister, Calif.). Severe combined immune deficient (SCID, B6.CB17-PrkdcSCID/SzJ) and Pmel-1 TCR transgenic (B6.Cg-Thyla/Cy Tg(TcraTcrb)8Rest/J) mice (5-6 weeks old) were purchased from The Jackson Laboratory (Bar Harbor, Me.). All mice were housed and treated in accordance with Institutional Animal Care and Use Committee guidelines. For the 4T1 tumor model, 1×10^5 cells were injected orthotopically into the mammary fat pad; for all other tumor models, 1×10^6 cells were injected subcutaneously (s.c.) in the right flank. […] Control groups received vehicle (water) twice daily by gavage. Tumor volume measured by digital caliper (length×width×width/2) and body weight were recorded three times weekly. Animals were euthanized when tumors necrotized or volumes reached 2000 mm^3. Anti-PD-L1 antibody (5 mg/kg, clone 10F.9G2, BioXCell, West Lebanon, N.H.) was injected intraperitoneally (i.p.) on days 5, 7, 9, 11, 13, and 15 for the CT26 model. Gemcitabine (Selleckchem, Houston, Tex.) was dosed 50 mg/kg i.p. on days 10 and 16 for the CT26 model or 60 mg/kg i.p. on days 6 and 10 for the LLC model. For CD8^+ cell depletion, mice were injected i.p. with anti-CD8 antibody (25 mg/kg, clone 2.43, BioXCell) on days −1, 0, +5, and +10. […]"}, "LLC tumors": {"test_system": "LLC tumors", "experiment": "LLC tumors in SCID mice", "assay_type": "in vivo, mouse", "conditions": "100 mg/kg PO twice daily", "method": "Tumors from LLC studies were analyzed on study day 13 (CD8^+ cell depletion) or study day 14 (NK cell depletion). (****P<0.0001; ***P<0.001; **P<0.01).\nas §1, with “model.” for “model. For CD8^+ cell depletion, mice were injected i.p. with anti-CD8 antibody (25 mg/kg, clone 2.43, BioXCell) on days −1, 0, +5, and +10.”"}, "B16 tumors": {"test_system": "B16 tumors", "experiment": "Adoptive T cell transfer study, B16 model", "assay_type": "in vivo, mouse", "conditions": "compared to either single agent; all groups cyclophosphamide plus fludarabine", "method": "Adoptive T cell transfer studies. Activated gp100-specific CD8^+ (Pmel-1) T cells were generated as described in Ya et al. Briefly, splenocytes from Pmel-1 TCR transgenic mice were isolated, pulsed with 1 μM of murine gp10025-33 (Anaspec, Fremont, Calif.) and expanded for 1 week in the presence of 60 IU/mL recombinant human IL-2 (Peprotech, Rocky Hill, N.J.). Cells were >90% CD8^+Vβ13^+ T cells as determined by flow cytometry. C57BL/6 mice were inoculated s.c. with B16 tumor cells. […] On day 7, lymphopenia was induced by a non-myeloablative chemotherapy regimen of 250 mg/kg cyclophosphamide and 50 mg/kg fludarabine administered i.p. The chemotherapy regimen was administered to all groups. On day 9, mice were administered 1×10^6 Pmel-1 T cells intravenously (i.v.). Mice receiving Pmel-1 T cells also received recombinant human IL-2 (200,000 IU/dose) administered i.p. twice daily for 3 days starting the day of T cell transfer."}},
  "data": [
    {"smiles": "C[C@H](N)C(=O)N1C[C@H](CCCB(O)O)[C@](N)(C(=O)O)C1", "note": "[arginase inhibitor]", "values": [
      {"measurement": "T cell proliferation restored, of the proliferation observed for T cells without granulocytes", "setting": "[1]; co-culture with healthy donor granulocytes", "result": 90, "unit": "%"},
      {"measurement": "Depletion of L-arginine from the media by granulocytes", "setting": "[1]; healthy donor granulocytes", "result": "blocked depletion of L-arginine"},
      {"measurement": "Growth inhibition of 4T1 cell line", "setting": "4T1 cell line", "result": "No growth inhibition"},
      {"measurement": "L-arginine in tumor and plasma", "setting": "[2]; oral dosing, tumor-bearing mice", "result": "raised the amount of L-arginine"},
      {"measurement": "Exposure of arginase inhibitor in tumor and plasma", "setting": "[2]; single dose or BID dosing for 5 days, oral, 2 h after last dose", "result": "dose-dependent exposure"},
      {"measurement": "Tolerability", "setting": "[3]; 100 mg/kg twice daily for 23 days, no significant clinical observations or impact on body weight", "result": "well-tolerated"},
      {"measurement": "Duration for which twice-daily oral dosing was well-tolerated", "setting": "[3]; mice", "result": "at least 40 days"},
      {"measurement": "Efficacy on LLC tumor growth in the SCID background", "setting": "LLC tumors", "result": "abrogated"},
      {"measurement": "Tumor growth, combination with T cells specific for the PMEL tumor antigen", "setting": "B16 tumors", "result": "significantly reduced tumor growth"}
    ]}
  ]
}
